According to the CheMixHub viscosity set:

Test: xn = mol fraction of the nth substance listed

C1CC[NH2+]C1.CCCCCCCC(=O)[O-] + CC#N
viscosity [mPa·s], 101 kPa
Conditions | x1 = 0.1601 | x1 = 0.2228 | x1 = 0.2843 | x1 = 0.3982 | x1 = 0.4849 | x1 = 0.609 | x1 = 0.6946 | x1 = 0.7891 | x1 = 0.9081
293.15 K | 5.42 | 6.71 | 7.22 | 11.37 | 13.54 | 18.24 | 24.41 | 33.6 | 51.93
298.15 K | 4.61 | 6.42 | 7.9 | 9.98 | 12.08 | 16.32 | 22.17 | 30.5 | 44.73
303.15 K | 3.37 | 3.58 | 5.31 | 8.14 | 9.96 | 14.01 | 17.35 | 24.21 | 35.95
308.15 K | 2.41 | 3.39 | 5.02 | 7.88 | 9.48 | 13.07 | 15.79 | 21.95 | 30.54
313.15 K | 1.92 | 2.99 | 4.35 | 6.59 | 8.46 | 10.7 | 14.2 | 18.22 | 25.69

CCC(C)O (configuration not stated) + CC#N
Conditions | viscosity [mPa·s]
293.15 K, 101 kPa, x2 = 0.1644 | 1.655

CCCCn1cc[n+](C)c1.F[B-](F)(F)F + CC#N
Conditions | viscosity [mPa·s]
298.15 K, 101 kPa, x2 = 0.0956 | 79.7

Cc1ccc(O)cc1 + CC(=O)O
viscosity [mPa·s], 101 kPa
Conditions | x2 = 0.1682 | x2 = 0.3128 | x2 = 0.4383 | x2 = 0.5483 | x2 = 0.6454 | x2 = 0.732 | x2 = 0.8094 | x2 = 0.8792 | x2 = 0.9425
298.15 K | 9.47 | 6.803 | 5.096 | 3.918 | 3.086 | 2.477 | 2.038 | 1.664 | 1.385
308.15 K | 5.756 | 4.488 | 3.585 | 2.902 | 2.385 | 1.99 | 1.674 | 1.4 | 1.18
318.15 K | 4.584 | 3.69 | 3.009 | 2.473 | 2.051 | 1.72 | 1.447 | 1.215 | 1.004

Cc1ccccc1N + CC(=O)O
viscosity [mPa·s], 100 kPa
Conditions | x1 = 0.1051 | x1 = 0.1945 | x1 = 0.2862 | x1 = 0.3854 | x1 = 0.4952 | x1 = 0.5994 | x1 = 0.6874 | x1 = 0.7658 | x1 = 0.8879
303.15 K | 1.3 | 1.51 | 1.73 | 1.96 | 2.2 | 2.43 | 2.62 | 2.79 | 3.04
308.15 K | 1.2 | 1.38 | 1.56 | 1.75 | 1.96 | 2.15 | 2.31 | 2.44 | 2.65
313.15 K | 1.11 | 1.27 | 1.42 | 1.59 | 1.76 | 1.93 | 2.06 | 2.17 | 2.34
318.15 K | 1.02 | 1.15 | 1.28 | 1.42 | 1.57 | 1.7 | 1.81 | 1.91 | 2.04

Cc1ccc(O)cc1 + CC(=O)c1ccccc1
303.15 K, 101 kPa
Conditions | viscosity [mPa·s]
x2 = 0.1137 | 10.7
x2 = 0.1526 | 10.25
x2 = 0.3364 | 8.205
x2 = 0.426 | 7.246
x2 = 0.4932 | 6.538
x2 = 0.5636 | 5.804
x2 = 0.758 | 3.823
x2 = 0.8099 | 3.31
x2 = 0.9433 | 2.026

Cc1cccc(C)c1 + CC(C)(C)O
308.15 K, 101 kPa
Conditions | viscosity [mPa·s]
x2 = 0.0642 | 0.542
x2 = 0.1265 | 0.59
x2 = 0.2068 | 0.633
x2 = 0.3029 | 0.667
x2 = 0.3766 | 0.72
x2 = 0.4301 | 0.756
x2 = 0.4992 | 0.793
x2 = 0.5983 | 0.909
x2 = 0.6924 | 1.013
x2 = 0.7966 | 1.296
x2 = 0.908 | 1.731

Nc1ccccc1Cl + CC(C)(C)O
viscosity [mPa·s], 101 kPa
Conditions | x1 = 0.0902 | x1 = 0.1802 | x1 = 0.3025 | x1 = 0.4125 | x1 = 0.5089 | x1 = 0.6158 | x1 = 0.7025 | x1 = 0.8054 | x1 = 0.9005
303.15 K | 3.13 | 3.28 | 3.44 | 3.57 | 3.66 | 3.73 | 3.78 | 3.82 | 3.84
308.15 K | 2.89 | 3.03 | 3.16 | 3.26 | 3.33 | 3.39 | 3.43 | 3.46 | 3.46
313.15 K | 2.36 | 2.52 | 2.68 | 2.79 | 2.88 | 2.98 | 3.03 | 3.09 | 3.11
318.15 K | 1.97 | 2.13 | 2.3 | 2.42 | 2.52 | 2.62 | 2.7 | 2.77 | 2.8

O=S1(=O)CCCC1 + CC(C)(C)O
viscosity [mPa·s], 101 kPa
Conditions | x1 = 0.1916 | x1 = 0.2786 | x1 = 0.3584 | x1 = 0.4717 | x1 = 0.5569 | x1 = 0.6312 | x1 = 0.732 | x1 = 0.8339 | x1 = 0.9188
303.15 K | 2.995 | 3.12 | 3.325 | 3.712 | 4.135 | 4.595 | 5.495 | 6.747 | 8.277
308.15 K | 2.513 | 2.644 | 2.844 | 3.213 | 3.602 | 4.022 | 4.832 | 5.938 | 7.276
313.15 K | 2.121 | 2.266 | 2.467 | 2.806 | 3.169 | 3.553 | 4.285 | 5.264 | 6.424

Cc1cccc(C)c1 + CC(C)CC(C)(C)C
308.15 K, 101 kPa
Conditions | viscosity [mPa·s]
x2 = 0.0651 | 0.5188
x2 = 0.1364 | 0.5018
x2 = 0.2067 | 0.4888
x2 = 0.3021 | 0.4746
x2 = 0.392 | 0.462
x2 = 0.4939 | 0.4518
x2 = 0.6007 | 0.4435
x2 = 0.7283 | 0.4385
x2 = 0.859 | 0.4352

BrC1CCCCC1 + CC(C)CO
viscosity [mPa·s], 101.33 kPa
Conditions | x1 = 0.0998 | x1 = 0.2024 | x1 = 0.3028 | x1 = 0.3991 | x1 = 0.4983 | x1 = 0.5946 | x1 = 0.7011 | x1 = 0.8014 | x1 = 0.9015
298.15 K | 2.871 | 2.496 | 2.252 | 2.095 | 1.981 | 1.915 | 1.878 | 1.877 | 1.915
313.15 K | 1.846 | 1.656 | 1.539 | 1.47 | 1.42 | 1.401 | 1.399 | 1.419 | 1.465

NCCCO + CC(C)CO
293.15 K, 101 kPa
Conditions | viscosity [mPa·s]
x1 = 0.501 | 13.95
x1 = 0.7008 | 21.85
